Laboratory results from PubChem BioAssay (NCI).
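Interpolation was linear, between the two tested concentrations surrounding the appropriate level; five concentrations were tested over 48 hours in 96-well plates. GI50: concentration for 50% inhibition of growth. TGI: total growth inhibition.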

Tests used:
Assay in all cases: inhibition of tumour cell growth, NCI panel, 48 h
IGROV1 ovarian = test system: IGROV1 ovarian
MOLT-4 leukemia = test system: MOLT-4 leukemia
LOX IMVI melanoma = test system: LOX IMVI melanoma
NCI-H522 lung = test system: NCI-H522 lung
U251 CNS = test system: U251 CNS
EKVX NSCLC = test system: EKVX NSCLC
SW-620 colon = test system: SW-620 colon
UACC-257 melanoma = test system: UACC-257 melanoma
OVCAR-3 ovarian = test system: OVCAR-3 ovarian
HCC-2998 colon = test system: HCC-2998 colon
CAKI-1 renal = test system: CAKI-1 renal

| Compound | TGI (IGROV1 ovarian) [µM] | TGI (MOLT-4 leukemia) [µM] | TGI (LOX IMVI melanoma) [µM] | TGI (NCI-H522 lung) [µM] | TGI (U251 CNS) [µM] | TGI (EKVX NSCLC) [µM] | TGI (SW-620 colon) [µM] | TGI (UACC-257 melanoma) [µM] | TGI (OVCAR-3 ovarian) [µM] | TGI (HCC-2998 colon) [µM] | GI50 (IGROV1 ovarian) [µM] | GI50 (MOLT-4 leukemia) [µM] | GI50 (U251 CNS) [µM] | GI50 (CAKI-1 renal) [µM] | TGI (CAKI-1 renal) [µM] | GI50 (EKVX NSCLC) [µM] | GI50 (SW-620 colon) [µM] | GI50 (UACC-257 melanoma) [µM] | GI50 (OVCAR-3 ovarian) [µM] | GI50 (HCC-2998 colon) [µM] |
| --- | --- | --- | --- | --- | --- | --- | --- | --- | --- | --- | --- | --- | --- | --- | --- | --- | --- | --- | --- | --- |
| O=C1C=C(C2OC(CO)C(O)C2O)C(=O)N1 (centres undefined) | > 100 | > 100 | > 100 | 38.5 | > 100 | > 100 | > 100 | > 100 | > 100 | > 100 |  |  |  |  |  |  |  |  |  |  |
| CCCC(C)c1ccc(OCCCCCCN2CCNCC2)cc1 (centres undefined) | 3.78 | 3.48 |  |  | 3.07 | 6.63 | 3.57 | 4.72 | 3.87 | 3.28 | 1.92 | 1.52 | 1.57 | 1.99 | 4.45 | 2.34 | 1.72 | 2.05 | 1.78 | 1.84 |
| N#C[S-].[La+3].c1cnc2c(c1)ccc1cccnc12.c1cnc2c(c1)ccc1cccnc12.c1cnc2c(c1)ccc1cccnc12 | 19.2 | 6.55 | 13.3 | 16 | 11.9 | 15.5 | 27.1 | 20.2 | 19.2 | 18.8 |  |  |  |  | 12.7 |  |  |  |  |  |
| OC(CC1CCCCN1)c1ccc2c(c1)oc1ccccc12 (centres undefined) | > 100 | 67.1 | > 100 | > 100 | > 100 | > 100 | > 100 | > 100 | > 100 | > 100 |  |  |  |  | > 100 |  |  |  |  |  |
| CC1(C)[C@@H]2CC[C@]1(C)[C@H](OC(=O)CSC#N)C2 | > 100 |  | > 100 | > 100 | > 100 | > 100 | 35.4 | > 100 | > 100 | > 100 |  |  |  |  | > 100 |  |  |  |  |  |
| COc1cc2c(cc1O)c(O)cc1c3cc(OC)c(OC)cc3c[n+](C)c21 |  | 40.3 | > 55.2 | 25.2 | 4.57 | > 100 | > 100 | > 100 | > 100 | > 100 |  |  |  |  | > 100 |  |  |  |  |  |
| Cc1ccc2c(ccc(/C=C/c3ccc(O)c4ncccc34)[n+]2C)c1 | 45.6 | > 82.2 | 30.2 | 27.1 | 26.8 | 76.6 | 28.4 | 24.2 | 10.4 | 20.7 |  |  |  |  | 33.3 |  |  |  |  |  |
| O=C(c1ccccc1)c1ccc2n[se]nc2c1 | > 100 | > 100 | > 100 | > 100 | > 100 | > 100 | > 100 | > 100 |  | 73.7 |  |  |  |  | > 100 |  |  |  |  |  |
| CN(C)/C=C/C(=CC=[N+](C)C)/C=C/N(C)C | > 100 | > 100 | > 100 | > 100 | > 100 |  | > 100 | > 100 | > 100 | > 100 |  |  |  |  | > 100 |  |  |  |  |  |
| CCC1C[N+]23CCc4c([nH]c5ccccc45)C2CC1CC3 (centres undefined) | > 100 | 95.2 | > 100 | > 100 | > 100 | > 100 | > 100 | > 100 | > 100 | > 100 |  |  |  |  | > 100 |  |  |  |  |  |
| CN(C)CCNC(=O)c1cccc2c(=O)c3ccccc3oc12 | > 100 | > 100 | 43.4 |  | > 100 | > 86.9 | > 100 | 74.4 | > 100 | > 100 |  |  |  |  |  |  |  |  |  |  |
| CCOP(=Nc1ccc(N(C)C)cc1)(OCC)OCC | > 100 | > 100 |  | > 100 | > 100 | > 100 |  | > 100 | > 100 | > 100 |  |  |  |  | > 100 |  |  |  |  |  |
| OC(CNc1ccccn1)c1ccccc1 (centres undefined) | > 100 | > 100 | > 100 | > 100 | > 100 | > 100 | > 100 | > 100 | > 100 | > 100 |  |  |  |  | > 100 |  |  |  |  |  |
| Cc1ccc(S(=O)(=O)Nc2cccc3c(=O)[nH]cnc23)cc1 | > 100 | > 100 | > 100 | > 100 | > 100 | > 100 | > 100 | > 100 | > 100 | > 100 |  |  |  |  | > 100 |  |  |  |  |  |
| CC(=O)C(C(c1ccccc1)N1CCOCC1)N1CCOCC1 (centres undefined) | > 100 | > 100 | > 100 | > 100 | > 100 | > 100 | > 100 | 38.9 | > 100 | 35.8 |  |  |  |  | > 100 |  |  |  |  |  |
| CC1=C2C(O)C(C(C)C(=O)N(C)C)CCC2(C)C=CC1=O (centres undefined) | > 100 | > 100 | > 100 | > 100 | > 100 | > 100 | > 100 | > 100 | > 100 | > 100 |  |  |  |  | > 100 |  |  |  |  |  |
